Source: ChEMBL document CHEMBL1145170, “Development of a three-dimensional model for the N-methyl-D-aspartate NR2A subunit” (J Med Chem, 2005)

Legend:
[1] = molecular target: T1, Glutamate receptor ionotropic, NMDA 2A (Rattus norvegicus, UniProt Q00959); assay: Inhibition of [3H]Glu binding to rat N-methyl-D-aspartic acid receptor 2A
[2] = molecular target: T1, Glutamate receptor ionotropic, NMDA 2A; assay: Inhibition of [3H]CPP binding to rat N-methyl-D-aspartic acid receptor 2A

T1 sequence (Q00959 whole entry): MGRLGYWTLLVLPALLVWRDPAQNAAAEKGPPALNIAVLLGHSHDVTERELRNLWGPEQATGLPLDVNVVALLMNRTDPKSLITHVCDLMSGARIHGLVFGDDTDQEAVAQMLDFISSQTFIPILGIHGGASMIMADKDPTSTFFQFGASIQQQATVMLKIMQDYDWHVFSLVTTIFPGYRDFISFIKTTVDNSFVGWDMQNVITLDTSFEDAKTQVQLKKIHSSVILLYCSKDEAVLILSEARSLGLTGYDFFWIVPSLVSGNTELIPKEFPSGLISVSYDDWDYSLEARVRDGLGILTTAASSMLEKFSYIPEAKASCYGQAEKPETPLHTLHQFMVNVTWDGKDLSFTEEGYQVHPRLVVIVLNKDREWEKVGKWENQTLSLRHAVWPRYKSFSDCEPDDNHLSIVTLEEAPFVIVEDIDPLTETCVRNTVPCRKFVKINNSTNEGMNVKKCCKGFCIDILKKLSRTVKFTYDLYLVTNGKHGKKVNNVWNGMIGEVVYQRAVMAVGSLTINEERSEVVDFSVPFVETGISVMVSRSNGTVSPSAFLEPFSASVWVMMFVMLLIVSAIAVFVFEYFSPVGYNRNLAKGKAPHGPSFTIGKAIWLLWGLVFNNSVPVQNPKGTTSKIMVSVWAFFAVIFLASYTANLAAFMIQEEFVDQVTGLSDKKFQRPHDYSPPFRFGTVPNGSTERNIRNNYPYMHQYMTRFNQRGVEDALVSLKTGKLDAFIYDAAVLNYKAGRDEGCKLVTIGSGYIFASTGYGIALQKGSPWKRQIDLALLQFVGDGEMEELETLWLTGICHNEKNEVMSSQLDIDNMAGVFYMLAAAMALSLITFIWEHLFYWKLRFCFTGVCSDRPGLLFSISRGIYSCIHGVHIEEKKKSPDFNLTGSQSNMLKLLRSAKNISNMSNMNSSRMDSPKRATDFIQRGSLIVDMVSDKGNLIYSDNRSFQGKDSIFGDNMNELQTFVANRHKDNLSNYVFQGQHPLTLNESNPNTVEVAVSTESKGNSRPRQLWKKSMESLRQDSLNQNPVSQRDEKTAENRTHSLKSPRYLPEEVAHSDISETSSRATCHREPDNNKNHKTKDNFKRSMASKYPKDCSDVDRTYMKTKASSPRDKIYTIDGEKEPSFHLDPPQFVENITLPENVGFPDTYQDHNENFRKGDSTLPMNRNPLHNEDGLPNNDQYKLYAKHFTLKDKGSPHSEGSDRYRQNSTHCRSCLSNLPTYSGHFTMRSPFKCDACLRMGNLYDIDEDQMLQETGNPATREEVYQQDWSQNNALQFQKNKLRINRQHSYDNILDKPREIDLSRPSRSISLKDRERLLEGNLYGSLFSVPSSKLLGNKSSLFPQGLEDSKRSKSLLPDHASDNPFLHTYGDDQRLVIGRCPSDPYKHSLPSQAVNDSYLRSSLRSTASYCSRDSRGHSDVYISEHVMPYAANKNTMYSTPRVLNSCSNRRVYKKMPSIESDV

SMILES	IC50 [1] [nM]	IC50 [2] [nM]
CCC/C(=C\[C@@H](N)C(=O)O)CP(=O)(O)O	230	–
N[C@H](CC(=O)CP(=O)(O)O)C(=O)O	–	110
N[C@@H](CCCP(=O)(O)O)C(=O)O	1500	290
O=C(O)[C@@H]1C[C@H](CP(=O)(O)O)CCN1 (single isomer, unassigned) [SELFOTEL]	840	95
C/C(=C\[C@@H](N)C(=O)O)CP(=O)(O)O [CGP-37849]	220	35
